Where no end group is shown, it is not given here.
Tests used:
ApoE knockout mice = assay: Atherosclerosis animal model (high-cholesterol diet, ApoE knockout mice); format: in vivo; conditions: 50 mg/kg intraperitoneally every 2 days for 8 weeks
Experimental: Animal experiment was performed in accordance with the guidelines approved by the Institutional Animal Care and Use Committee of Yonsei University (IACUC-A-202404-1847-02). 6-week-old male ApoE knockout B6.KOR/StmSlc-Apoeshl mice were housed in a specific pathogen-free system with a 12-hour light-dark cycle with free access to food and water, and randomly divided into three groups (control, positive control, and test groups). Then, the sample was injected intraperitoneally to the control group (vehicle), the positive control group (CTS (cryptotanshinone), 20 mg/kg), and the test group (peptide, 50 mg/kg) once every two days for 8 weeks while feeding the mice with a high-cholesterol diet until the end of the experiment (for 8 weeks).
After sacrificing the mice, PBS perfusion was performed through the left ventricle, and the heart, artery, and blood were obtained. The artery was cut along the bifurcation of the iliac artery, spread out, fixed with pins, and fixed in 10% formaldehyde for 16 hours. After staining with Oil-Red-O for 16 hours, the samples were washed with PBS and images were obtained using a microscope (NS-6T, China).
The fusion peptide 4 (50 mg/kg) was injected intraperitoneally every 2 days for 8 weeks into an animal model of atherosclerosis (high-cholesterol diet, ApoE knockout mice).

HUVEC cells = assay: MTT assay (cell proliferation); format: cell-based, human; conditions: 0-300 μM, up to 72 hours
Experimental: Human umbilical vein endothelial cells (HUVECs) were cultured in EBM-2 medium supplemented with FBS (2%, v/v) and antibiotics. After seeding the cells in a 96-well plate at 3,000 cells/well and culturing the same, they were treated with the prepared fusion peptides on the next day at concentrations of 0, 100, 200, and 300 μM. After 0, 24, 48, and 72 hours, MTT solution (2 mg/mL) was treated at a concentration of 0.4 mg/mL. After culturing for 3 hours, the medium was removed and the cells were treated with DMSO. Then, fluorescence was measured at 540 nm.
Afterwards, 3-[4,5-dimethylthiazol-2-yl]-2,5-diphenyltetrazolium bromide (MTT) assay, which allows observation of cell proliferation by fluorescence, was performed to confirm the optimal concentration of the fusion peptide 4 in the HUVEC cells.

Hela cells = assay: SPLICS (ER-mitochondria split-GFP) proximity assay; format: cell-based; conditions: Hela cells transfected with SPLICS vector, 10 mM EtOH, peptide 20 μM, 1 hour, vs control (DW)
Source text: To this end, MAM regulatory activity was verified using the SPLICS (ER-mitochondria split-GFP) system, which allows observation of the proximity between intracellular organelles through fluorescence emission. The SPLICS system is a system that can efficiently image the proximity of intracellular organelles based on the principle that split-GFP fluorescence is emitted when two organelles are within approximately 10 to 40 nm of each other. As the two organelles approach, complementation of GFP occurs, resulting in fluorescence at the junction. It is to be noted that increased contact between ER and mitochondria may lead to cellular stress and dysfunction.
First, to observe the change in the distance between the ER and mitochondria due to treatment with the fusion peptides, Hela cells were transfected with the SPLICS vector. Afterwards, the HeLa cells were treated with the fusion peptides and the area (%) of GFP fluorescence relative to the total area per cell was measured. […] That is to say, it was observed from the decrease in green fluorescence in the groups treated with the fusion peptides of the present disclosure that the two organelles were moving apart from each other.

Substance | body weight (ApoE knockout mice) | cell proliferation (MTT) (HUVEC cells) | GFP fluorescence signal (area of GFP fluorescence relative to the total area per cell), SPLICS (Hela cells)
YARVRRRGPRRRSIYYLGIGPT [fusion peptide 4, YARVRRRGPRR-RSIYYLGIGPT] | did not affect the body weight | no inhibition of cell proliferation was observed even at concentrations of 100-200 μM | 
YARVRRRGPRR-GGG-FSTAADGQTQ (YARVRRRGPRRGGGFSTAADGQTQ) [fusion peptide 2, CPP Hph-1 linked to Peptide 2 (GGG-…), GRP75 motif] |  |  | significant decrease in fluorescence signals
YARVRRRGPRR-DTETKME (YARVRRRGPRRDTETKME) [fusion peptide 3] |  |  | significant decrease in fluorescence signals
YARVRRRGPRR-FSTAADGQTQ (YARVRRRGPRRFSTAADGQTQ) [fusion peptide 1] |  |  | significant decrease in fluorescence signals

From patent US20250171496A1, “FUSION PEPTIDE FOR REGULATING ACTIVATION OF MAM AND USE THEREOF” (UIF (University Industry Foundation), Yonsei University, priority 2023, published 2025)
